Values quoted from earlier work in US20250025568A1, “COMBINATION OF ANTIBODY-DRUG CONJUGATE AND PARP1 SELECTIVE INHIBITOR” (AstraZeneca UK Limited, priority 2021, published 2025).

Assays:
WT DLD-1 = settings: 4 day compound dosing; read-out: WT DLD-1 prolif 4 d IC50; cited from earlier work
BRCA2 −/− DLD-1 = settings: 4 day compound dosing; read-out: BRCA2 −/− DLD-1 prolif 4 d IC50; cited from earlier work

| SMILES | IC50 (WT DLD-1) [nM] | IC50 (BRCA2 −/− DLD-1) [nM] |
| --- | --- | --- |
| CNC(=O)c1ccc(N2CCN(Cc3ccc4nc(C(F)(F)F)c(=O)[nH]c4c3)CC2)c(Cl)n1 [Example 16, 6-chloro-N-methyl-5-[4-[[3-oxo-2-(trifluoromethyl)-4H-quinoxalin-6-yl]methyl]piperazin-1-yl]pyridine-2-carboxamide] | > 22000 | 18 |
| CCCc1nc2ccc(CN3CCN(c4ccc(C(=O)NC)nc4Cl)CC3)cc2[nH]c1=O [Example 19, 6-chloro-N-methyl-5-[4-[(3-oxo-2-propyl-4H-quinoxalin-6-yl)methyl]piperazin-1-yl]pyridine-2-carboxamide] | > 30000 | – |
| CCc1nc2ccc(CN3CCN(c4ccc(C(=O)NC)nc4C)CC3)cc2[nH]c1=O [Example 13, 5-[4-[(2-ethyl-3-oxo-4H-quinoxalin-6-yl)methyl]piperazin-1-yl]-N, 6-dimethyl-pyridine-2-carboxamide] | > 26000 | 5 |
| CCc1nc2cc(F)c(CN3CCN(c4ccc(C(=O)NC)nc4F)CC3)cc2[nH]c1=O [Example 21, 5-[4-[(2-ethyl-7-fluoro-3-oxo-4H-quinoxalin-6-yl)methyl]piperazin-1-yl]-6-fluoro-N-methyl-pyridine-2-carboxamide] | > 30000 | 16 |
| CCc1cc2cnc(CN3CCN(c4ccc(C(=O)NC)nc4)CC3)cc2[nH]c1=O [Example 1, 5-[4-[(3-ethyl-2-oxo-1H-1,6-naphthyridin-7-yl)methyl]piperazin-1-yl]-N-methyl-pyridine-2-carboxamide] | > 30000 | 10 |
| CCCc1nc2ccc(CN3CCN(c4ccc(C(=O)NC)nc4F)CC3)cc2[nH]c1=O [Example 20, 6-fluoro-N-methyl-5-[4-[(3-oxo-2-propyl-4H-quinoxalin-6-yl)methyl]piperazin-1-yl]pyridine-2-carboxamide] | > 24000 | 16 |
| CCc1cc2ncc(CN3CCN(c4ccc(C(=O)NC)nc4C(F)F)CC3)cc2[nH]c1=O [Example 29, 6-(difluoromethyl)-5-[4-[(7-ethyl-6-oxo-5H-1,5-naphthyridin-3-yl)methyl]piperazin-1-yl]-N-methyl-pyridine-2-carboxamide] | > 30000 | 7 |
| CNC(=O)c1ccc(N2CCN(Cc3ccc4nc(C(C)(F)F)c(=O)[nH]c4c3)CC2)cn1 [Example 22, 5-[4-[[2-(1,1-difluoroethyl)-3-oxo-4H-quinoxalin-6-yl]methyl]piperazin-1-yl]-N-methyl-pyridine-2-carboxamide] | > 30000 | 12 |
| CNC(=O)c1ccc(N2CCN(Cc3ccc4nc(CCF)c(=O)[nH]c4c3)CC2)cn1 [Example 25, 5-[4-[[2-(2-fluoroethyl)-3-oxo-4H-quinoxalin-6-yl]methyl]piperazin-1-yl]-N-methyl-pyridine-2-carboxamide] | > 25000 | – |
| CCc1nc(C(=O)NC)ccc1N1CCN(Cc2ccc3nc(CC)c(=O)[nH]c3c2)CC1 [Example 8, 6-ethyl-5-[4-[(2-ethyl-3-oxo-4H-quinoxalin-6-yl)methyl]piperazin-1-yl]-N-methyl-pyridine-2-carboxamide] | > 19000 | – |
| CNC(=O)c1ccc(N2CCN(Cc3ccc4nc(C(F)(F)F)c(=O)[nH]c4c3)CC2)c(F)n1 [Example 17, 6-fluoro-N-methyl-5-[4-[[3-oxo-2-(trifluoromethyl)-4H-quinoxalin-6-yl]methyl]piperazin-1-yl]pyridine-2-carboxamide] | > 30000 | 20 |
| CCc1nc2ccc(CN3CCN(c4ccc(C(=O)NC)nc4C(F)F)CC3)cc2[nH]c1=O [Example 10, 6-(difluoromethyl)-5-[4-[(2-ethyl-3-oxo-4H-quinoxalin-6-yl)methyl]piperazin-1-yl]-N-methyl-pyridine-2-carboxamide] | > 30000 | 6 |
| CCCc1nc2ccc(CN3CCN(c4ccc(C(=O)NC)nc4)CC3)cc2[nH]c1=O [Example 18, N-methyl-5-[4-[(3-oxo-2-propyl-4H-quinoxalin-6-yl)methyl]piperazin-1-yl]pyridine-2-carboxamide] | > 30000 | 4900 |
| CCc1nc2ccc(CN3CCN(c4ccc(C(=O)NC)nc4C(F)(F)F)CC3)cc2[nH]c1=O [Example 9, 5-[4-[(2-ethyl-3-oxo-4H-quinoxalin-6-yl)methyl]piperazin-1-yl]-N-methyl-6-(trifluoromethyl)pyridine-2-carboxamide] | 17000 | 10 |
| CCc1cc2cnc(CN3CCN(c4ccc(C(=O)NC)nc4F)CC3)cc2[nH]c1=O [Example 2, 5-[4-[(3-ethyl-2-oxo-1H-1,6-naphthyridin-7-yl)methyl]piperazin-1-yl]-6-fluoro-N-methyl-pyridine-2-carboxamide] | > 30000 | 8 |
| CCc1nc2ccc(CN3CCN(c4ccc(C(=O)NC)nc4F)CC3)cc2[nH]c1=O [Example 12, 5-[4-[(2-ethyl-3-oxo-4H-quinoxalin-6-yl)methyl]piperazin-1-yl]-6-fluoro-N-methyl-pyridine-2-carboxamide] | > 30000 | 8 |
| CNC(=O)c1ccc(N2CCN(Cc3ccc4nc(C(F)(F)F)c(=O)[nH]c4c3)CC2)cn1 [Example 15, N-methyl-5-[4-[[3-oxo-2-(trifluoromethyl)-4H-quinoxalin-6-yl]methyl]piperazin-1-yl]pyridine-2-carboxamide] | > 30000 | 90 |
| CCc1nc2ccc(CN3CCN(c4ccc(C(=O)NC)nc4Cl)CC3)cc2[nH]c1=O [Example 14, 6-chloro-5-[4-[(2-ethyl-3-oxo-4H-quinoxalin-6-yl)methyl]piperazin-1-yl]-N-methyl-pyridine-2-carboxamide] | > 30000 | 6 |
| CNC(=O)c1ccc(N2CCN(Cc3ccc4nc(CC(F)F)c(=O)[nH]c4c3)CC2)c(F)n1 [Example 24, 5-[4-[[2-(2,2-difluoroethyl)-3-oxo-4H-quinoxalin-6-yl]methyl]piperazin-1-yl]-6-fluoro-N-methyl-pyridine-2-carboxamide] | 14000 | 10 |
| CNC(=O)c1ccc(N2CCN(Cc3ccc4nc(CC(F)(F)F)c(=O)[nH]c4c3)CC2)cn1 [Example 27, N-methyl-5-[4-[[3-oxo-2-(2,2,2-trifluoroethyl)-4H-quinoxalin-6-yl]methyl]piperazin-1-yl]pyridine-2-carboxamide] | > 10000 | 10300 |
| CCc1nc2ccc(CN3CCN(c4ccc(C(=O)NC)nc4)CC3)cc2[nH]c1=O [Example 11, 5-[4-[(2-ethyl-3-oxo-4H-quinoxalin-6-yl)methyl]piperazin-1-yl]-N-methyl-pyridine-2-carboxamide] | > 30000 | 184 |
| CCc1cc2ncc(CN3CCN(c4ccc(C(=O)NC)nc4Cl)CC3)cc2[nH]c1=O [Example 6, 6-chloro-5-[4-[(7-ethyl-6-oxo-5H-1,5-naphthyridin-3-yl)methyl]piperazin-1-yl]-N-methyl-pyridine-2-carboxamide] | > 30000 | 6 |
| CCc1cc2cnc(CN3CCN(c4ccc(C(=O)NC)nc4Cl)CC3)cc2[nH]c1=O [Example 3, 6-chloro-5-[4-[(3-ethyl-2-oxo-1H-1,6-naphthyridin-7-yl)methyl]piperazin-1-yl]-N-methyl-pyridine-2-carboxamide] | > 30000 | 4 |
| CCc1cc2ncc(CN3CCN(c4ccc(C(N)=O)nc4)CC3)cc2[nH]c1=O [Example 7, 5-[4-[(7-ethyl-6-oxo-5H-1,5-naphthyridin-3-yl)methyl]piperazin-1-yl]pyridine-2-carboxamide] | – | 4140 |
